Test results taken from the NIST ThermoML archive (doi:10.1021/je4003916).

Test: refractive index (Na D-line) (dimensionless); xn = mol fraction of the nth substance listed
Settings: 101 kPa, Liquid, Dipping refractometry (monochromatic)

C1CCOC1 [tetrahydrofuran] + CCCCO
refractive index
Settings | x1 = 0.1001 | x1 = 0.2003 | x1 = 0.3 | x1 = 0.4003 | x1 = 0.5 | x1 = 0.6001 | x1 = 0.7003 | x1 = 0.8006 | x1 = 0.9002 | x1 = 1
288.15 K | 1.402 | 1.4028 | 1.4036 | 1.4043 | 1.4051 | 1.4059 | 1.4068 | 1.4077 | 1.4087 | 1.4096
293.15 K | 1.3999 | 1.4006 | 1.4013 | 1.4021 | 1.4028 | 1.4035 | 1.4044 | 1.4052 | 1.4061 | 1.407
298.15 K | 1.3978 | 1.3985 | 1.3991 | 1.3998 | 1.4004 | 1.4011 | 1.4019 | 1.4027 | 1.4035 | 1.4043
303.15 K | 1.3957 | 1.3963 | 1.3969 | 1.3974 | 1.398 | 1.3987 | 1.3994 | 1.4001 | 1.4009 | 1.4016
308.15 K | 1.3936 | 1.3941 | 1.3946 | 1.3951 | 1.3957 | 1.3962 | 1.3969 | 1.3975 | 1.3983 | 1.399
313.15 K | 1.3914 | 1.3919 | 1.3923 | 1.3928 | 1.3933 | 1.3938 | 1.3943 | 1.3949 | 1.3956 | 1.3963
318.15 K | 1.3893 | 1.3897 | 1.3901 | 1.3905 | 1.3909 | 1.3913 | 1.3918 | 1.3923 | 1.3929 | 1.3936
323.15 K | 1.3871 | 1.3874 | 1.3878 | 1.3881 | 1.3885 | 1.3888 | 1.3893 | 1.3897 | 1.3903 | 1.3909
